The values that follow come from US20080269266A1, “NOVEL COMPOUNDS 747” (ASTRAZENECA AB, priority 2007, published 2008).

SMILES strings stand for the structures.

The target in this experiment is T1, human IGF1R (Homo sapiens, UniProt P08069).
T1 construct: expressed in transfected cells; host or cells: R+ cells (R- mouse fibroblasts transfected with human IGF1R)
As to the kind of experiment: Inhibition of Insulin-Like Growth Factor-1 Receptor Phosphorylation in R+ cells. Type of experiment: cell-based. Conditions: median; R+ cells stimulated with 30 nM IGF1. How it is done:
This immunofluorescence end point cell assay measures the ability of a test compound to reduce the measured levels of IGF1R phosphorylation after IGF1 stimulation in R cells. R^+ cells are derived by transfection of R^− mouse fibroblast cells with human IGF1R. R^+ cells are routinely cultured in DMEM growth medium (Gibco BRL, 41966) containing 2 mM L-Glutamine (Invitrogen Code no. 25030-024) and 10% (v/v) foetal bovine serum (FBS)) in a 5% CO2 air incubator at 37° C.
To undertake the assay, the R^+ cells are seeded at 5×10^3 cells/well in DMEM plus 1% foetal calf serum, 1% L-glutamine in 96-well black Packard View plates (PerkinElmer 6005182) and incubated at 37° C. (+5% CO2) in a humidified incubator. […]
Following the compound treatment, the R^+ cells are stimulated with a final concentration of 30 nM IGF1 (Gropep IM001) for 20 minutes at 37° C. […] Additionally, in-house antibodies raised against phospho IGF1R were also used at a suitable titre determined for each batch. […]
The Green Fluorescent phospho IGF1R-associated signal in each well was measured using an Acumen Explorer HTS Reader (TTP Labtech Ltd., Cambridge). Phospho IGF1R-associated fluorescence emission can be detected at 530 nm following excitation at 488 nm. […] These fluorescent objects can be quantified and provide a measure of the phospho IGF1R levels in cells. […]

T1 sequence (P08069 31-1367): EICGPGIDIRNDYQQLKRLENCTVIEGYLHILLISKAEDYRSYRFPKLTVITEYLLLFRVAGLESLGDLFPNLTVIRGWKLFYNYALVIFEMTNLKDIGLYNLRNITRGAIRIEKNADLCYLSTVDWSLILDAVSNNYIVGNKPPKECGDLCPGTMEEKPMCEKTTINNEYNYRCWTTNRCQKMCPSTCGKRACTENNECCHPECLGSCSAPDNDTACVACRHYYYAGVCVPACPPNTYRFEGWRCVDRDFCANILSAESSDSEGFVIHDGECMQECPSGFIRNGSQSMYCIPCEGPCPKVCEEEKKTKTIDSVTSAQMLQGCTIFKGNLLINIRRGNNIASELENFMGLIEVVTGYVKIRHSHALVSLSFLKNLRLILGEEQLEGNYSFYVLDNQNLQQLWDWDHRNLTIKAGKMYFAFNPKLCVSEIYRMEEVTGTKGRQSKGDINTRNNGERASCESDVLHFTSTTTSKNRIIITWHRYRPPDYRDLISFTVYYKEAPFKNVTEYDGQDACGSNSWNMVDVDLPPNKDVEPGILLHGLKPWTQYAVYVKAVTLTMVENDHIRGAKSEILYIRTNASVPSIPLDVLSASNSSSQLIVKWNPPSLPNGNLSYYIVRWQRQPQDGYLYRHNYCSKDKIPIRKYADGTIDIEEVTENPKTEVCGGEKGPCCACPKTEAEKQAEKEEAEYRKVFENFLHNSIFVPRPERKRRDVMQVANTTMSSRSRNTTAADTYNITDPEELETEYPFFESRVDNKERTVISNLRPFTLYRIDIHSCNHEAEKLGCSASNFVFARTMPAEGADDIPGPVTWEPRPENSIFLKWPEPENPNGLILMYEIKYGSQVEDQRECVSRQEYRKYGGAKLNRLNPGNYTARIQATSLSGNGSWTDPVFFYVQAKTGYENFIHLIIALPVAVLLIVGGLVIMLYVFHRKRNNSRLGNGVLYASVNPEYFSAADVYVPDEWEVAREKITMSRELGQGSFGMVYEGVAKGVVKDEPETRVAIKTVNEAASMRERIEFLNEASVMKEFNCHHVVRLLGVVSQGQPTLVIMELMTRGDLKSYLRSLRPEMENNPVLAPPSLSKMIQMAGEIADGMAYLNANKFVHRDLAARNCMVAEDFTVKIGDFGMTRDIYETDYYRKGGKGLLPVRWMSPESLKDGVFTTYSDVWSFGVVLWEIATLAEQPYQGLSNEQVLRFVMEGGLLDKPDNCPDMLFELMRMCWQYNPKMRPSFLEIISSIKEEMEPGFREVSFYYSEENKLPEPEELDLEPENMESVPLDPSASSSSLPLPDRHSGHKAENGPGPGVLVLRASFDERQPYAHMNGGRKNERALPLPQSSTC

Regarding `COc1cc(Nc2cc(C)n[nH]2)nc(N2CCC[C@H]2c2cc(-c3ncccn3)no2)n1` [Example 1, (S)-6-Methoxy-2-{2-[3-(pyrimid-2-yl)isoxazol-5-yl]pyrrolidin-1-yl}-4-(5-methyl-1H-pyrazol-3-ylamino)pyrimidine], the IC50 is 4.29 nM.

With `CCc1cc(Nc2cc(OC)nc(N3CCC[C@H]3c3cc(-c4ncccn4)no3)n2)n[nH]1` [Comparative Example A, (S)-6-Methoxy-2-{2-[3-(pyrimid-2-yl)isoxazol-5-yl]pyrrolidin-1-yl}-4-(5-ethyl-1H-pyrazol-3-ylamino)pyrimidine], the IC50 was determined as 2.68 nM.

The term IC50 denotes the concentration needed to halve the response being measured. A high value points to weaker potency in that assay.
